Laboratory results reported in patent publication US20040127519A1 (Pharmacia Corporation, priority 2002, published 2004).

Key:
[1] = test system: TNFα production; test: Lipopolysaccharide (LPS)-induced TNFα production in rats (Rat LPS assay, serum TNFα ELISA); assay type: in vivo, Lewis rats; conditions: 20 mpk (IP)
[2] = test system: U937 cell TNFα release; test: U937 Cell TNFα Release Assay (LPS-stimulated, TNFα ELISA); assay type: cell-based; conditions: Homo sapiens, U-937, U937 cells
Procedure: U937 Cell TNFα Release Assay
The human monocyte-like cell line, U937 (ATCC #CRL-1593.2), is cultured in RPMI1640 media with 10% heat-inactivated fetal calf serum (GIBCO), glutamine and pen/strep at 37° C. and 5% CO2. Differentiation of U937 to monocytic/macrophage-like cells is induced by the addition of phorbol12-myristate 13-acetate (Sigma) at final concentration of 20 ng/ml to a culture of U937 cells at ˜0.5 million cells/ml and incubated for 24 hrs. The cells are centrifuged, washed with PBS and resuspended in fresh media without PMA and incubated for 24 hrs. Cells adherent to the culture flask are harvested by scraping, centrifugation, and resuspended in fresh media to 2 million cells/ml, and 0.2 ml is aliquoted to each of 96 wells in flat-bottom plate. Cells are then incubated for an additional 24 hrs to allow for recovery. […]
ELISA plates (NUNC-Immuno™ Plate Maxisorb™ Surface) were coated with purified mouse monoclonal IgG1 anti-human TNFα antibody (R&D Systems #MAB610; 1.25 ug/ml in sodium bicarbonate pH 8.0, 0.1 ml/well) and incubated at 4° C. […] Enzymatic conversion of ABTS to colored product was measured after 5-30 minutes using a SpectroMax 340 spectrophotometer (Molecular Devices) at 405 nm. TNF levels were quantitated from a recombinant human TNFα (R&D Systems #210-TA-010) standard curve using a quadratic parameter fit generated by SoftMaxPRO software. […]

| SMILES | inhibition at 20 mg/kg [1] [%] | IC50 [2] [µM] |
| --- | --- | --- |
| N#Cc1c(N)nc2c(c1-c1cccnc1)CCCCCC2 [Example 225, 2-amino-4-pyridin-3-yl-5,6,7,8,9,10-hexahydrocycloocta[b]pyridine-3-carbonitrile] | 88 | 6.9 |
| C=CCNc1sc2c(-c3ccc(Br)cc3)c(C#N)c(N)nc2c1C#N [Example 224, 2-(allylamino)-5-amino-7-(4-bromophenyl)thieno[3,2-b]pyridine-3,6-dicarbonitrile] | 60 | 2.9 |
